The values that follow come from patent US7476729B2, “Dbait and uses thereof” (Institut Curie, priority 2003, dated 2009).

The subject of the data set is U87 xenografted human glioblastoma. Kind of data set: Radiosensitization of xenografted human glioblastoma (U87) on nude mice. The class given is in vivo. To be noted: for Number of mice where Tumor volume <4 cm^3 At the day 25 (6 mice per group): 1 nmole/intratumoral injection, total 30 Gy. From the text: Radio-sensitization was also observed in mice xenografted with human glioblastoma tumors. The glioblastoma is the highest grade of brain-tumor, and is characterized by its extraordinary aggressive progression with fast fatal outcome and resistance to radio- and chemotherapies. 2-3 millions of U87 cells derived from human glioblastoma was first injected subcutaneously in nude mouse. The grafted tumor was then took out and used to seed subsequently other nude mice by subcutaneous transplant of about 8 mm^3 glioblastoma tumor.
50% mice in the arm which received Dbait32H (SEQ ID NO: 1) (1 nmole) by intratumoral injection and irradiation (1×15 Gy/week or 3×5 Gy/week, followed by one week rest, then second treatment cycle, the total dose of ionizing radiation was 30 Gy) had tumor volume<4 cm^3 at the day 25 after the start of treatment, whereas 100% mice in the control arms (untreated or irradiated and injected with saline solution (PBS) had tumor volume well exceeded 4 cm^3, and were killed before the end of the assay according to current regulation on animal ethics before the end of the treatment.
Table 3.1: Assay of radiosensitization of xenografted human glioblastoma on nude mice by Dbait32H (SEQ ID NO: 1) (1 nmole/intratumoral injection) previously named DRIL32-PEG. Two protocols of irradiation (5 hours after intratumoral injection) were used: 1×15 Gy/week, or 3×5 Gy/week, followed by one week rest, the second treatment cycle. The total irradiation dose was 30 Gy. Control groups were the untreated or the groups received saline solution (PBS) injection.
Background: Xenograft models place foreign cells or tissue in a host animal.

As for “Dbait32H: hairpin double strand DNA with a stem of 32-bp, hexaethyleneglycol linker, phosphorothioate at the free blunt end (DNA ACGCACGGGTGTTGGGTCGTTTGTTCGGATCT; DNA, backbone not given here; hairpin, hexaethyleneglycol loop, 3-bp phosphorothioate at free blunt end)”, the “mice with tumor volume<4 cm^3 at the day 25” value (1 nmole intratumoral and irradiation (1×15 Gy/week or 3×5 Gy/week)) was found to be 50%. Moreover, the “Number of mice where Tumor volume <4 cm^3 At the day 25 (6 mice per group)” value runs as follows: (1 × 15 Gy/week) 3/6; (3 × 5 Gy/week) 3/6.
